The structures appear in SMILES notation.

The test system of this test is T1, cholesterol oxidase (ChoX, ChOx).
T1 construct: native extracellular enzyme purified from culture supernatant (ammonium sulfate, Q-Sepharose)
The test is described as follows: HRP-coupled 4-aminoantipyrine/phenol quinoneimine assay at […] nm, Lineweaver-Burk. It counts as biochemical, Escherichia fergusonii. Particulars: optimum conditions (30 °C, pH 7.5, in the presence of MgSO4 per abstract); KPB; cholesterol 0.1-3.0 mM in Triton X-100; O2 co-substrate.

As for `CC(C)CCC[C@@H](C)[C@H]1CC[C@H]2[C@@H]3CC=C4C[C@@H](O)CC[C@]4(C)[C@H]3CC[C@]12C` [cholesterol], the Km worked out at 710 µM.

For the origin of these results see publication PMC11744973, “Optimized extraction and kinetic study of cholesterol oxidase from a newly isolated Escherichia fergusonii strain from local whey samples: insights through a combined experimental study and artificial neural network modeling” (BMC Microbiology, 2025).
